Key:
[1] = system: endogenous HATs associated with solubilized chromatin; conditions: literature (Bandyopadhyay et al 2009; Parello et al. 1990); cited from earlier work
H358 lung cancer cells = experiment: [3H]-thymidine incorporation DNA synthesis assay; assay type: cell-based; conditions: data not shown
Description: (A) Structures of 1a, and the acetylated side chain of a lysine residue within the polypeptide chain of a protein targeted by the acetylating enzyme (R1 and R2 are the main chain elements on both sides of the lysyl residue). (B) [^3H]-thymidine incorporation into DNA of H358 cells pulsed for 6 hrs at three different time points after the addition of increasing concentrations of 1a, i.e., at 6-12 hrs (12 hr curve), at 18-24 hours (24 hr curve), or at 42-48 hrs (48 hr curve). Incorporation is represented as a percentage relative to control (untreated) cells. (C) Cell cycle analysis of propidium iodide-stained cells harvested at various times after addition of 50 μM 1a. % of cells in G1, S, and G2 represents the average of two independent profiles. (D) Western analysis of histone H3 lysine 9 acetylation, histone H3 lysine 56 acetylation, histone H3 lysine 9 methylation, and total histone H3, before “c” or at the indicated times after addition of 50 μM 1a. Each lane represents 60 μg cellular protein.
Control cells were left untreated. […] Control cells were left untreated.
Cells were either labeled immediately before treatment (starting DNA synthesis rate), or subjected to the indicated treatments and then pulsed on successive days until day 4. DNA synthesis is represented as the percent of starting DNA synthesis rate. Viability was determined for each treatment condition 24 hours post-start of treatment by the trypan blue exclusion assay, with percentages of viable cells indicated to the right of the graph.
H358 cells (2,000/well) in 96-well plates were treated with 1, 10 or 50 μM of spd-1a, spd-2a, spd-3a, spm3, or spm2 for 12 hours. Triplicate wells of cells were pulsed 6 hours with 0.5 μCi [^3H]-thymidine (NEN, Boston Mass.) post-start of drug treatment, and harvested onto filter paper using a Brandel Harvester and subjected to scintillation counting. Untreated cells were pulsed 0-6 hrs to establish the initial rate of incorporation.
Cells were plated in 96-well plates (2000 cells per well to insure conditions for exponential growth for untreated cells over the time course of the experiment) and exposed to the following treatments: 1a (50 μM); camptothecin (Sigma, St Louis, Mo. 5 nM, 18 hours); cisplatin (Platinol, obtained through local pharmacies, 2 μM, 1 hour 15 minutes), 5-fluorouracil (5FU, Adrucil™, obtained through local pharmacies, 2 μM, 1 hour 15 minutes), Taxotere (provided by the late Dr. Pierre Potier, 5 nM, 18 hours). UVC treatment (40 J/m^2) using a Stratalinker™, Stratagene, La Jolla, Calif.) was carried using medium lacking phenol red. At 0-6 hr, 18-24 hr (day 1), 42-48 hr […], 66-72 hr (day 3), and 90-96 hr (day 4) post-start of treatment, triplicate wells were incubated with 0.5 μCi [^3H]-thymidine (NEN, Boston Mass.), harvested onto filter paper, and subjected to scintillation counting. Trypan blue exclusion assays for cell membrane integrity were carried out as known in the art.
The present inventors used [^3H]-thymidine incorporation assays to examine DNA synthesis in H358 lung cancer cells in the presence of varying concentrations of 1a. Cells were pulsed for 6 hours with [^3H]-thymidine at three different time points after the addition of 1a (i.e., at 6-12 hours, at 18-24 hours, and at 42-48 hours). The incorporation of [^3H]-thymidine into DNA decreased with increasing concentrations of 1a at all three time points, with the maximal effect occurring with the 6-12 hour pulse (FIG. 2B).
We then used [^3H]-thymidine incorporation assays to examine DNA synthesis in H358 lung cancer cells in the presence of 1a alone, or together with an 18 hour exposure to the DNA damaging drug, camptothecin (CPT), a plant alkaloid from which an important class of topoisomerase I-targeted chemotherapeutic agents (Hycamtin [topotecan] and Camptosar [irinotecan]) has been derived (Garcia-Carbonero, et al, 2002, Clin Cancer Res 8: 641-61). […]

γ-H2A.X in H358 cells = experiment: double strand break / gamma-H2A.X Western and co-immunoprecipitation; assay type: cell-based; conditions: 18 hours post-start; 1a 50 μM, 5FU 2 μM, cisplatin 2 μM, camptothecin 5 nM
Description: Also shown are controls for no treatment (“c” minus 1a) or treatment with 1a only (“c” plus 1a). Each lane represents 60 μg protein. […] Each lane represents 60 μg protein.
To measure DSB repair, cells were incubated for 1 hour with 10 μM camptothecin to induce DSBs, followed by incubation in the presence or absence of 50 μM 1a. At fixed times, histones were prepared by extraction in 0.2M H2SO4 as described previously and 50 μg extract was analyzed by 12% SDS-PAGE followed Western analysis as described previously, using rabbit polyclonal anti-γ-H2A.X [phosphor ser 139] (Novus Biologicals, Littleton, Colo.) or anti-H3 (Upstate Biotechnology, Inc, Lake Placid, N.Y.). Band intensities were quantitated digitally. To study acetylation of γ-H2A.X, we carried out co-immunoprecipitation analysis using 50 μg extract protein in immunoprecipitation buffer (10 mM sodium phosphate pH 7, 0.15 M NaCl, 0.1% SDS, 1% NP40, 1% sodium deoxycholate, aprotinin, 1 mM PMSF, complete protease inhibitors (Roche) using immobilized anti-acetyl-lysine (Millipore, Temecula, Calif.) in the immunoprecipitation step. The immunoprecipitated material was then analyzed as for Western analysis using anti γ-H2A.X.
Double strand breaks (DSBs) can be formed by a variety of DNA damaging agents, including camptothecin, cisplatin, 5FU, and UVC radiation (Avemann K, et al., 1988, Mol Cell Biol, 8: 3026-34; Bogdanov K V, et al. 1997, Br J Haematol, 98:869-72; Pavon M A, et al., Int J Cancer, 2008, 123:1068-79) implying that DSB repair may play a role in reducing their cellular toxicity. To examine how 1a treatment affects DSB repair in H358 cells we made use of the fact that the histone variant, H2A.X becomes phosphorylated at sites of double strand breaks (denoted γ-H2A.X), and can be detected by immunoblot analysis of acid extracted cells (Rogaku E P, et al., 1999, J Cell Biol, 146:905-16). […] Total H3 levels and H2A.X levels (control) are unaffected by these treatments (FIG. 4B). […]

[2] = system: MDA MB-435 breast cancer cells; experiment: 72 hr viability assay; assay type: cell-based; conditions: DFMO 100 μM, 5FU 2 μM 18 hrs, doxorubicin 100 nM 18 hr
MCF7 breast cancer cells = conditions: single agent; DFMO 100 μM, 5FU 2 μM 18 hrs, doxorubicin 100 nM 18 hr; spd-2a with no siRNA or control siRNA
Description: (A) [^3H]-thymidine incorporation into DNA of H358 cells (left panel) or MCF-7 cells (right panel) during a 6 hour pulse ending at the indicated time points after initiation of treatment. Treatments were 50 μM 1a alone, 5 nM camptothecin alone (CPT, 18 hours), 50 μM 1a+5 nm CPT (18 hours). Control cells were left untreated. (B) 2-day 96-well viability assays of H358 cells (left panel) or MCF-7 cells (right panel) grown in presence of increasing concentrations of 1a (continuous), with or without an 18-hour treatment with 5 nM camptothecin (CPT). Cell viability, represented as a percent of untreated cell viability (i.e., no 1a, no CPT), was determined 2 days post-start of treatment by the MTS bioconversion assay (MTS=(3-(4,5′-dimethylthiazol-2-yl)-5-(3-carboxymethoxylphenyl-2-(4-sulfophenyl)-2H-tetrazolium salt). Each data point represents the average of triplicate wells. Assays were carried out under conditions such that untreated cells remained in exponential growth. (C) [^3H]-thymidine incorporation into DNA of H358 cells carried out as in part “A”. Treatment consisted of 1a alone (50 μM), or cisplatin (2 μM, 1 hour, 15 minutes) alone or together with 1a (Panel 1); or UVC (40 J/m^2), alone or together with 1a (Panel 2); or 5-fluorouracil (5FU, 2 μM, 18 hours) alone or together with 1a (Panel 3), or Taxotere™ (5 nM, 18 hours), alone or together with 1a (Panel 4). Control cells were left untreated. Symbols are as follows: (-◯-) untreated control; (-●-) 50 μM 1a, (-∇-) drug or UVC alone; (-▾-) combination 1a+drug or UVC.
Viability was measured 3 days after the start of treatment and is expressed as a percentage of control (untreated) cell viability.
Each point is average of triplicates.
Date of exp: 7-17-2010; located p.21 in Hat notebook: KB-2 (2010-2011).
Cells were plated in 96-well plates (3000 cells per well) and incubated 18 hours with or without 5 nM camptothecin (Sigma, St Louis, Mo.). Triplicate wells were then treated with varying doses of 1a (from 0-50 μM). Control cells received neither 1a nor camptothecin. 2-day viability was determined by the MTS assay as previously (Saadatmandi et al., 2002, Cancer Gene Therapy, 9: 830-9) and expressed as a percentage of control cell viability.
The present inventors carried out 96-well viability assays as we have previously described (Saadatmandi et al, Cancer Gene Therapy (2002) 9:830-9), in which MCF7 breast cancer cells were plated at 3000 cells per well. After overnight attachment, triplicate wells were treated with increasing doses of inhibitor 1a. Control wells were left untreated. After 3 days, cell viability was measured by the MTS assay, which measures the bioconversion of an uncolored substrate to a colored formazan derivative, and is proportional to cell number. […]

DLD-1 colon cancer = experiment: subcutaneous DLD-1 tumor model in nude mice; assay type: in vivo, nude mouse; conditions: DFMO alone, intratumoral, 2 mg/kg
Description: Tumors were initiated By subcutaneous implantation of […] DLD-1 colon cancer cells. […] Tumors were measured and volumes calculated as in FIG. 14.
Tumors were initiated by injecting 10^6 DLD-1 cells (from ATCC) per mouse (female nude mouse, 4-5 weeks, Harlan Labs) subcutaneously in the flank. (A) When the average tumor size reached 26 mm^3, animals were randomized into 2 groups (3 per group). One group was left untreated and served as the control (-●-). […] Tumors were measured bidirectionally at 2-3 day intervals and tumor volumes were calculated (v=½L×w^2). A paired t-test was used to evaluate the significance of the differences between the two groups of animals. […] (B) Tumors were initiated as in part (A). When tumors reached an average size of about 30 mm^3, animals were randomized into three groups of 2 animals each. The control group (-●-) received no treatment. The DFMO group (-▪-) received intratumoral injections of DFMO (2 mg/kg) on days 1, 7, 9 (5 PM), and 2, 8, 10 (9 AM, 5 PM). […] Tumors were measured and volumes calculated as in part (A). A paired t-test was used to evaluate the significance of the difference between the curves.

Row | Compound | inhibitory activity against endogenous HAT [1] | inhibitory activity against DNA synthesis in vivo, isomers compared (H358 lung cancer cells) | γ-H2A.X level, single agent (γ-H2A.X in H358 cells) | 72 hr cell viability, single agent [2] | 3-day / 72 hr cell viability, single agent (MCF7 breast cancer cells) | tumor volume difference versus control (DLD-1 colon cancer)
1 | CC(C)(COP(=O)(O)OP(=O)(O)OC[C@H]1O[C@@H](n2cnc3c(N)ncnc32)[C@H](O)[C@@H]1OP(=O)(O)O)[C@@H](O)C(=O)NCCC(=O)NCCSCC(=O)NCCCCNCCCN [1b, spermidine [N8]-CoA] | comparable inhibitory activity | comparable inhibitory activity | – | – | – | –
2 | N.N.[Cl][Pt][Cl] [cisplatin, cis-diamminedichloro-platinium] | – | – | weakly detectable | – | – | –
3 | NCCC[C@](N)(C(=O)O)C(F)F [DFMO, α-difluoromethylornithine] | – | – | – | ineffective | ineffective | not significant
4 | COc1cccc2c1C(=O)c1c(O)c3c(c(O)c1C2=O)C[C@@](O)(C(=O)CO)C[C@@H]3O[C@H]1C[C@H](N)[C@H](O)[C@H](C)O1 [doxorubicin] | – | – | – | minimal effects | minimal effects | –
5 | O=c1[nH]cc(F)c(=O)[nH]1 [5FU, 5-Fluorouracil] | – | – | weakly detectable | minimal effects | minimal effects | –

Source: US9107879B1, “Methods of increasing the cytotoxicity of chemotherapeutic agents with multisubstrate inhibitors of histone, protein-lys, polyamine acetylation, and polyamine metabolism” (Vanderbilt University, priority 2010, dated 2015)
